# In patent US5185347A, “Piperidine compounds and antiulcer composition containing the same” (Meiji Seika Kaisha Ltd., priority 1990, dated 1993):
# Tests used:
# [1] = tested on: Water Immersion Restraint Stress-Induced Ulcer; test: Test on Water Immersion Restraint Stress-Induced Ulcer; assay type: in vivo, Wister male rat; details: 30 mg/5 ml/kg-b.w. in 0.5% CMC, 1 hour before stress, water immersion restraint 6 hours, 20 to 22° C., ulcer index = sum of longer diameters (mm); for inhibition in vivo at 30 mg/kg: Rattus norvegicus, read-out: Percent Inhibition on Ulceration
# Experimental: 1) Test on Water Immersion Restraint Stress-Induced Ulcer:
# A 11-week-old Wister male rat having been deprived of food for 18 hours was restrained in a cage and immersed chest-deep in water at 20 to 22° C. for 6 hours to impose a stress. The rat taken out of water was sacrificed by cervical dislocation, the stomach removed, 5 ml of a 5% formalin aqueous solution poured into the stomach, and the whole stomach was soaked in the same solution for 30 minutes. The thus fixed sample was opened along the greater curvature. The longer diameter (mm) of ulcers formed was measured with a slide caliper, and the sum was taken as an ulcer index. Each of test compounds shown in Table 1 below was suspended in a 0.5% carboxymethylcellulose (CMC) solution and administered to the rat (test group) at a dose level of 30 mg/5 ml/kg-b.w. 1 hour before imposition of a stress. Only a 0.5% CMC solution (5 ml) was administered to a control group. A percent inhibition of ulceration was obtained from equation: [formula]
# [2] = Toxicity (oral LD50); details: in vivo, orally administering, species not given
# Text: The compounds of the present invention are of low toxicity.
# [3] = tested on: Ethanol-Induced Ulcer; test: Ethanol-Induced Ulcer; assay type: in vivo, Donryu male rat; details: orally, 30 mg/5 ml/kg-b.w. in 0.5% CMC, one hour before 5 ml/kg-b.w. of 100% ethanol
# Experimental: 2) Ethanol-Induced Ulcer:
# A Donryu male rat having been deprived of food for 48 hours and of water for 24 hours orally received 5 ml/kg-b.w. of 100% ethanol. One hour later, the rat was sacrificed in the same manner as described in (1) above, the stomach removed and treated in the same manner as above. The test compound (the compound of Example 2) was suspended in a 0.5% CMC solution and orally administered to the rat at a dose of 30 mg/5 ml/kg-b.w. one hour before administration of ethanol.
Molecule,inhibition in vivo at 30 mg/kg [1] [%],further results
"5(6)-(2-Acetylamino-2-ethoxycarbonyl)ethyl-l-[2-(2,2,6,6-tetramethylpiperidin-1-yl)]ethyl-2-[2-(2,2,6,6-tetramethylpiperidin-1-yl)ethylthio]benzimidazole [Example 12]",–,Percent Inhibition on Ulceration [1]: 87%
"COc1ccc2nc(SCCN3C(C)(C)CCCC3(C)C)[nH]c2c1 [Example 1, 5-Methoxy-2-[2-(2,2,6,6-tetramethylpiperidin-1-yl)ethylthio]benzimidazole]",92,LD50 [2]: > 1000 mg/kg
CCOC(=O)C(Cc1ccc2[nH]c(SCCN3C(C)(C)CCCC3(C)C)nc2c1)NC(=O)c1ccc(Cl)cc1 (stereo not shown) [Example 2],97,inhibition on erosion [3]: 80%; LD50 [2]: > 1000 mg/kg
"CC1(C)CCCC(C)(C)N1CCSc1nc2cc(CC(NC(=O)c3ccc(Cl)cc3)C(N)=O)ccc2[nH]1 (stereo not shown) [Example 3, 5-[2-Carbamoyl-2-(p-chlorobenzoyl)amino]ethyl-2-[2-(2,2,6,6-tetramethylpiperidin-1-yl)ethylthio]benzimidazole]",62,–
"CC1(C)CCCC(C)(C)N1CCSc1nc2cc(CC(NC(=O)c3ccc(Cl)cc3)C(=O)O)ccc2[nH]1 (stereo not shown) [Example 4, 5-[2-Carboxy-2-(p-chlorobenzoyl)amino]ethyl-2-[2-(2,2,6,6-tetramethylpiperidin-1-yl)ethylthio]benzimidazole]",40,–
"CCOC(=O)C(Cc1ccc2[nH]c(SCCN3C(C)(C)CCCC3(C)C)nc2c1)NC(C)=O (stereo not shown) [Example 5, 5-[2-Acetylamino-2-ethoxycarbonyl)ethyl-2-[2-(2,2,6,6-tetramethylpiperidin-1-yl)ethylthio]benzimidazole]",97,LD50 [2]: > 1000 mg/kg
"Cc1ccc2nc(SCCN3C(C)(C)CCCC3(C)C)[nH]c2c1 [Example 6, 5-Methyl-2-[2-(2,2,6,6-tetramethylpiperidin-1-yl)ethylthio]benzimidazole]",95,–
CC1(C)CCCC(C)(C)N1CCSc1nc2cc(CO)ccc2[nH]1 [Example 7],97,–
COC(=O)c1ccc2[nH]c(SCCN3C(C)(C)CCCC3(C)C)nc2c1 [Example 8],98,–
CC1(C)CCCC(C)(C)N1CCSc1nc2ccccc2[nH]1 [Example 9],97,–
Cn1c(SCCN2C(C)(C)CCCC2(C)C)nc2ccccc21 [Example 10],100,–
CC1(C)CCCC(C)(C)N1CCSc1nc2ccccc2n1Cc1ccccc1 [Example 11],95,–
